From patent US20260209260A1, “VECTORIZED NHC IRIDIUM(III) COMPLEXES AND USE THEREOF IN PHOTODYNAMIC THERAPY AND/OR DIAGNOSTIC” (CENTRE NATIONAL DE LA RECHERCHE SCIENTIFIQUE, priority 2022, published 2026)
“And” between values parts separate entries of the source, which are not always exact repeats. Equal values may be shown once. Read-outs that look alike come from different tables or passages of the source. Marks after values point to notes of the source that are not given here.

Assays:
[1] = Lipophilicity: octanol-water partition coefficient, shake-flask method
Outline: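 Octanol and water mutually pre-saturated for 24 h; compound ([…] stock in aqueous phase) partitioned against equal volume n-octanol, mixed 15 min, phases separated by centrifugation.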

[2] = UV/Vis absorption spectra; format: physicochemical; settings: room temperature, air-saturated CH2Cl2 or CH2Cl2/MeOH (1:1), 50 μM; ε in brackets, sh = shoulder
Procedure: UV/Vis absorption spectra were recorded at RT on solutions contained in quartz cuvettes (optical pathlength 1 cm, Hellma®) with a PerkinElmer® UV/VIS/NIR spectrophotometer Lambda 950 and a PerkinElmer® detector UV/VIS/NIR Accessory 2D Detector Module.

[3] = Luminescence emission spectra and quantum yield; format: physicochemical; settings: for λem: CH2Cl2, room temperature, λexc 365 nm or 470 nm; for ΦP emission phosphorescence quantum yield: room temperature, reference POPOP in hexane or rhodamine B in ethanol
Outline: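 Spectrofluorometric fluorescence/phosphorescence emission spectra of the iridium(III) complexes recorded in CH2Cl2 at room temperature. Quantum yields by the Demas–Crosby relative method on solutions at RT, from integrated emission band areas versus a reference standard of known yield, corrected for solvent refractive index.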

[4] = Emission lifetime measurement; format: physicochemical
Outline: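 Emission lifetimes measured by time-correlated single-photon counting (0.5 ns time resolution), excitation from a D2 lamp and a 405 nm pulsed diode laser. Estimated error 5% on lifetime.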

[5] = tested on: MC3T3 osteoblast cells (non-tumor); assay: Cell viability assay (MTT), dark and blue light; format: cell-based, Murine; settings: for Photosensitizing index (PI) MC3T3: dark vs blue light 458 nm; for Photosensitizing index (PI): MC3T3, dark vs blue light
Outline: (§1)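 Viability determined by MTT assay (A570) after 72 h treatment in 0.1% DMSO, with or without a 10 min irradiation at 8 h. Data from at least three independent experiments run in triplicate.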

[6] = tested on: NIH-3T3 fibroblast cells (non-tumor); assay: Cell viability assay (MTT), dark and blue light; format: cell-based, Murine; settings: for Photosensitizing index (PI) NIH-3T3: dark vs blue light 458 nm; for Photosensitizing index (PI): NIH-3T3, dark vs blue light
Outline: as §1

[7] = 8 h in the dark, blue light 458 nm 10 min, then dark up to 72 h, read-out: GI50 MC3T3 Blue
[8] = in the dark, 72 h, read-out: GI50 MC3T3 Dark
[9] = 8 h in the dark, blue light 458 nm 10 min, then dark up to 72 h, read-out: GI50 NIH-3T3 Blue
[10] = in the dark, 72 h, read-out: GI50 NIH-3T3 Dark
[11] = n-octanol/water, shake-flask, mean of at least three determinations
[12] = MC3T3, blue light, read-out: GI50
[13] = NIH-3T3, blue light, read-out: GI50

Structure (SMILES)	Log P [1]	λmax (nm) ε (M^−1 · cm^−1) [2]	λem [3]	ΦP emission phosphorescence quantum yield [3] [%]	τ1 emission lifetime [4] [ns]	GI50 [5, 7] [µM]	Photosensitizing index (PI) MC3T3 [5]	GI50 [5, 8]	GI50 [6, 9]	Photosensitizing index (PI) NIH-3T3 [6]	GI50 [6, 10] [µM]	Log P [1, 11]	GI50 [5, 12] [µM]	Photosensitizing index (PI) [5]	GI50 ([5]; MC3T3, dark, read-out: GI50) [µM]	GI50 [6, 13] [µM]	Photosensitizing index (PI) [6]	GI50 ([6]; NIH-3T3, dark, read-out: GI50) [µM]
COC(=O)c1ccc2[n+](c1)[Ir-3]13([c]4ccccc4-2)([c]2ccccc2-c2ccc(C(=O)OC)c[n+]21)[c]1n(CCCNC(=O)CCCC[C@@H]2SC[C@@H]4NC(=O)N[C@@H]42)cc[n+]1-c1cccc[n+]13.F[P-](F)(F)(F)(F)F [I-e]	0.25 ± 0.04	310 (sh) (19500), 365 (sh) (4690), 432 (4155) nm (M^−1 · cm^−1)	511-550 nm	3.7	224	41.1	1.4	58.8 µM and 56.8 µM	135 µM	>1.9	> 250							
F[P-](F)(F)(F)(F)F.O=C(CCCC[C@@H]1SC[C@@H]2NC(=O)N[C@@H]21)NCCCn1cc[n+]2[c]1[Ir-3]13([c]4ccccc4-c4ccc5ccccc5[n+]41)([c]1ccccc1-c1ccc4ccccc4[n+]13)[n+]1ccccc1-2 [I-g]	1.26 ± 0.04	336 (19000), 437 (4600) nm (M^−1 · cm^−1)	593-652 nm	<0.1	203	31.4	1.8	85.2 µM and 55.2 µM	81.7 µM and 61.7 µM	1.8	110							
F[P-](F)(F)(F)(F)F.O=C(CCCC[C@@H]1SC[C@@H]2NC(=O)N[C@@H]21)NCCCn1cc[n+]2[c]1[Ir-3]13([c]4ccccc4-c4c5ccccc5cc[n+]41)([c]1ccccc1-c1c4ccccc4cc[n+]13)[n+]1ccccc1-2 [I-h]		337 (sh) (12520), 352 (sh) (11890), 380 (sh) (8100), 436 (4855) nm (M^−1 · cm^−1)		3.0	202	5	8.4	42.2 µM	10.4 µM	9.7	101	0.87 ± 0.02						
F[P-](F)(F)(F)(F)F.O=C(CCCC[C@@H]1SC[C@@H]2NC(=O)N[C@@H]21)NCCCn1cc[n+]2[c]1[Ir-3]13([c]4ccccc4-c4sc5ccccc5[n+]41)([c]1ccccc1-c1sc4ccccc4[n+]13)[n+]1ccccc1-2 [I-k]	0.87 ± 0.03	321 (25835), 372 (sh) (7480), 406 (6130) nm (M^−1 · cm^−1)		7.0	322	19.2	1.3	25.8 µM	31.1 µM	2.4	75.8							
F[P-](F)(F)(F)(F)F.O=C(O)CC[C@H](NC(=O)N[C@@H](CCCCNC(=O)CCn1cc[n+]2[c]1[Ir-3]13([c]4ccccc4-c4c5ccccc5cc[n+]41)([c]1ccccc1-c1c4ccccc4cc[n+]13)[n+]1ccccc1-2)C(=O)O)C(=O)O [III-h]		336 (sh) (23695), 352 (sh) (22270), 378 (sh) (15520), 435 (9310) nm (M^−1 · cm^−1)	628 nm	3.0	215	8.3		52.4 µM	19 µM		> 100	0.88 ± 0.02	8.3	6.3	52.4	19	>5.3	> 100
F[P-](F)(F)(F)(F)F.O=C(O)CC[C@H](NC(=O)N[C@@H](CCCCNC(=O)CCn1cc[n+]2[c]1[Ir-3]13([c]4cccc5ccc6ccc[n+]1c6c45)([c]1cccc4ccc5ccc[n+]3c5c14)[n+]1ccccc1-2)C(=O)O)C(=O)O [III-i]	0.60 ± 0.01	317 (19830), 412 (5510) nm (M^−1 · cm^−1)	548 nm		227			250 µM			> 100		40.6	6.2	250	55.8	>1.8	> 100
F[P-](F)(F)(F)(F)F.O=C(O)CC[C@H](NC(=O)N[C@@H](CCCCNC(=O)CCn1cc[n+]2[c]1[Ir-3]13([c]4c(sc5ccccc45)-c4cccc[n+]41)([c]1c(sc4ccccc14)-c1cccc[n+]13)[n+]1ccccc1-2)C(=O)O)C(=O)O [III-j]	−0.38 ± 0.03	324 (26900), 343 (sh)^b (24560), 428 (10800) nm (M^−1 · cm^−1)		3.0	197	12.5			10.8 µM		> 100		12.5	>20	> 250	10.8	>9.3	> 100
F[P-](F)(F)(F)(F)F.O=C(O)CC[C@H](NC(=O)N[C@@H](CCCCNC(=O)CCn1cc[n+]2[c]1[Ir-3]13([c]4ccccc4-c4sc5ccccc5[n+]41)([c]1ccccc1-c1sc4ccccc4[n+]13)[n+]1ccccc1-2)C(=O)O)C(=O)O [III-k]	−0.14 ± 0.01	321 (39070), 370 (sh) (12560), 406 (10170) nm (M^−1 · cm^−1)		6.1	649	33.8		95.1 µM	30 µM		> 100		33.8	2.8	95.1	30	>3.3	> 100
F[P-](F)(F)(F)(F)F.O=C(NCCCn1cc[n+]2[c]1[Ir-3]13([c]4ccccc4-c4c5ccccc5cc[n+]41)([c]1ccccc1-c1c4ccccc4cc[n+]13)[n+]1ccccc1-2)[c-]1cccc1.[Fe+2].c1cc[cH-]c1 [IV-h]	0.81 ± 0.07	334 (sh) (19440), 351 (sh) (18355), 380 (12745), 435 (7870) nm (M^−1 · cm^−1)		0.07	178									3.8	17.1	4.4	3.0	
F[P-](F)(F)(F)(F)F.O=C(NCCCn1cc[n+]2[c]1[Ir-3]13([c]4cccc5ccc6ccc[n+]1c6c45)([c]1cccc4ccc5ccc[n+]3c5c14)[n+]1ccccc1-2)[c-]1cccc1.[Fe+2].c1cc[cH-]c1 [IV-i]		318 (25600), 413 (7410) nm (M^−1 · cm^−1)		0.02	205							0.74 ± 0.02	10	1.0	10	17.8	2.3	
